This note sets out measurements from ChEMBL document CHEMBL1201862, “PubChem BioAssay data set” (2004).

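Tested at 5 concentrations; 48 h exposure; 96-well plates; endpoints linearly interpolated, else capped at highest concentration. Abbreviation: GI50, concentration required for 50% inhibition of growth.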 Activity calls are given as the source filed them. Cut-off read from the data, not from the text of the source: active = GI50 up to about 1.1 µM and inactive = higher. Bounds are passed on as bounds.

Among the test systems are SNB-19; OVCAR-3; HT-29; SF-268; MCF7; UO-31; SN12C; U-251; CCRF-CEM; SNB-75; MOLT-4; NCI/ADR-RES; SK-MEL-5; COLO 205; SW-620; UACC-257; SK-OV-3; EKVX; M14; Malme-3M.
Common to all, as to experiment: DTP human tumour cell line panel, 48 h

`CC1=C2C(O)C(C(C)C(=O)NC(C)C)CCC2(C)C=CC1=O` (configuration not stated): the GI50 with SNB-19, in the test with OVCAR-3, with HT-29, in the test on SF-268, with MCF7 and with UO-31 was > 100 µM (inactive) throughout. The GI50 in the test with SN12C, in the test with U-251, in the test on CCRF-CEM, in the test with SNB-75, with MOLT-4 and in the test on NCI/ADR-RES was > 100 µM (inactive) throughout. Further, the GI50 in the test with SK-MEL-5, in the test on COLO 205, with SW-620, with UACC-257, in the test with SK-OV-3 and in the test with EKVX was > 100 µM (inactive) in each case.

For `N#CN=C(NCCO)NCCO`, the GI50 with SNB-19, with OVCAR-3, with HT-29, in the test with SF-268, with UO-31 and with SN12C was > 100 µM (inactive) in each case. Moreover, the GI50 with U-251, with CCRF-CEM, with M14, in the test on SNB-75, with Malme-3M and with MOLT-4 was > 100 µM (inactive) throughout. In addition, the GI50 in the test with COLO 205, in the test with SW-620, with UACC-257, in the test on SK-OV-3 and with EKVX was > 100 µM (inactive) in each case.

Turning to `COC(=O)c1cc(-c2cccn2C)c2c(c1C(=O)OC)c1ccccc1n2C`, the GI50 in the test with SNB-19 is > 100 µM (inactive); in the test with OVCAR-3, 12.7 µM (inactive); with HT-29, 6.98 µM (inactive); in the test on UO-31, > 100 µM (inactive); in the test on SN12C it was > 100 µM (inactive); in the test with U-251 it was 70.5 µM (inactive). The GI50 was 77.4 µM (inactive) in the test with M14; 71.4 µM (inactive) in the test on SNB-75; > 100 µM (inactive) in the test with Malme-3M; 3.13 µM (inactive) in the test on MOLT-4; 44.3 µM (inactive) in the test with SK-MEL-5; 32.9 µM (inactive) in the test with COLO 205. Further, the GI50 with SW-620 was 85.1 µM (inactive); in the test on UACC-257, 82 µM (inactive); in the test on SK-OV-3, > 100 µM (inactive).

As for `Cc1cccc(NC(=O)/C(=N\N)C(c2cnc3ccc([N+](=O)[O-])cc3n2)[N+](=O)[O-])c1C` (configuration not stated), the GI50 in the test on SNB-19, in the test on OVCAR-3, in the test on HT-29, in the test on SF-268, with UO-31 and in the test on SN12C was > 100 µM (inactive) in each case. The GI50 with CCRF-CEM, with M14, with SNB-75, with Malme-3M, with MOLT-4 and in the test on SK-MEL-5 was > 100 µM (inactive) in each case. For the same compound, the GI50 in the test on COLO 205, in the test on SW-620, in the test with UACC-257, in the test with SK-OV-3 and in the test with EKVX was > 100 µM (inactive) throughout.

Regarding `COC(=O)C(C(=O)C(=O)Nc1nnc(S)[nH]1)c1csc(-n2nc(-c3ccccc3)cc2-c2ccccc2)n1` (configuration not stated), the GI50 is > 100 µM (inactive) in the test on SNB-19; > 100 µM (inactive) in the test with OVCAR-3; 27.5 µM (inactive) with HT-29; > 100 µM (inactive) in the test with SF-268; 5.61 µM (inactive) in the test with UO-31; > 100 µM (inactive) with SN12C. Besides, the GI50 was > 100 µM (inactive) in the test on U-251; > 100 µM (inactive) in the test on CCRF-CEM; > 100 µM (inactive) in the test on M14; 3.75 µM (inactive) in the test on SNB-75; > 100 µM (inactive) in the test with Malme-3M; > 100 µM (inactive) in the test with MOLT-4. Further, the GI50 in the test with COLO 205 was > 100 µM (inactive); in the test on SW-620, > 100 µM (inactive); in the test on UACC-257 it was > 100 µM (inactive); in the test with SK-OV-3, > 100 µM (inactive); in the test with EKVX, 33.3 µM (inactive).

For `COc1ccc(/C(Cl)=C(\C=O)c2ccc(F)cc2)cc1OC`, the GI50 is 37.4 µM (inactive) in the test with SNB-19; 22.8 µM (inactive) with OVCAR-3; 15.4 µM (inactive) in the test with HT-29; 13.5 µM (inactive) in the test on SF-268; 16.4 µM (inactive) with UO-31; 15.9 µM (inactive) with SN12C. Also, the GI50 is 15.6 µM (inactive) in the test with U-251; 10.7 µM (inactive) in the test on CCRF-CEM; 17.6 µM (inactive) in the test on M14; 3.22 µM (inactive) in the test on SNB-75; 30.5 µM (inactive) in the test on Malme-3M; 9.91 µM (inactive) in the test on MOLT-4. The GI50 with SK-MEL-5 was 15.3 µM (inactive); in the test on COLO 205, 19.6 µM (inactive); in the test with SW-620, 28.7 µM (inactive); in the test on SK-OV-3 it was 39.4 µM (inactive); in the test with EKVX, 5 µM (inactive).

As to `O=C(N/N=C/c1cc(Br)cc(Br)c1O)c1ccccc1O`, the GI50 in the test on SNB-19 is 0.912 µM (active); in the test with OVCAR-3, 0.273 µM (active); in the test with HT-29, 3.38 µM (inactive); with SF-268, 0.469 µM (active); in the test with UO-31 it was 0.695 µM (active); with U-251 it was 0.399 µM (active). The concentration for 50% growth inhibition (GI50) was 0.687 µM (active) with M14; 3.66 µM (inactive) in the test on SNB-75; 1.56 µM (inactive) in the test with Malme-3M; 0.575 µM (active) with MOLT-4; 1.07 µM (active) in the test on SK-MEL-5; 3.34 µM (inactive) in the test on COLO 205. The GI50 with SW-620 was 0.773 µM (active); in the test on UACC-257, 2.26 µM (inactive); in the test with SK-OV-3 it was 1.06 µM (active); in the test on EKVX, 1.18 µM (inactive).

Consider `Cc1ccc(N2C(=O)C3CSCN3C2=O)cc1` (configuration not stated), for which the GI50 in the test with SNB-19, in the test on OVCAR-3, with HT-29, in the test on SF-268, in the test with MCF7 and with UO-31 was > 100 µM (inactive) throughout. The GI50 in the test on SN12C, in the test with U-251, with CCRF-CEM, in the test with SNB-75, with MOLT-4 and with NCI/ADR-RES was > 100 µM (inactive) throughout. Moreover, the GI50 in the test with SK-MEL-5, in the test on COLO 205, in the test with SW-620, in the test on UACC-257, in the test on SK-OV-3 and with EKVX was > 100 µM (inactive) each time.

Turning to `C=CCc1c(O)c2c(c3oc(=O)cc(C)c13)CC(C)O2` (configuration not stated), the GI50 with SNB-19 is > 100 µM (inactive); in the test on OVCAR-3 it was > 100 µM (inactive); in the test on HT-29, 57.7 µM (inactive); in the test with SF-268, > 100 µM (inactive); with UO-31, 68.9 µM (inactive); in the test on SN12C it was > 100 µM (inactive). Moreover, the GI50 with U-251 was > 100 µM (inactive); in the test on CCRF-CEM, 50.4 µM (inactive); in the test on M14, > 100 µM (inactive); in the test with SNB-75 it was > 100 µM (inactive); with Malme-3M, > 100 µM (inactive); in the test on MOLT-4 it was 56.5 µM (inactive). For the same compound, the GI50 in the test with SK-MEL-5, in the test with SW-620, in the test on UACC-257, in the test with SK-OV-3 and with EKVX was > 100 µM (inactive) each time.

Regarding `O=C(NC1C=Nc2ccc([N+](=O)[O-])cc2NC1=O)c1cc(Cl)cc([N+](=O)[O-])c1` (configuration not stated), the GI50 in the test with SNB-19, in the test with HT-29, with SF-268, in the test with UO-31, with SN12C and in the test on U-251 was > 100 µM (inactive) throughout. Further, the GI50 was 20.8 µM (inactive) in the test with CCRF-CEM; > 100 µM (inactive) in the test on M14; > 100 µM (inactive) in the test on SNB-75; 41.6 µM (inactive) in the test on MOLT-4; > 100 µM (inactive) with SK-MEL-5; 59.3 µM (inactive) with COLO 205. In addition, the GI50 in the test with SW-620 was > 100 µM (inactive); with UACC-257, > 100 µM (inactive); with SK-OV-3 it was > 100 µM (inactive); in the test with EKVX it was 94.8 µM (inactive).

`COc1ccc(NC(=O)CC(=O)N2N=C(N3c4ccccc4Sc4ccccc43)CC2c2ccccc2)cc1` (configuration not stated): the GI50 with SNB-19 was > 100 µM (inactive); in the test on OVCAR-3, > 100 µM (inactive); in the test on HT-29, > 100 µM (inactive); with SF-268, 23.4 µM (inactive); in the test on MCF7, > 100 µM (inactive); with UO-31, > 100 µM (inactive). The GI50 in the test on SN12C was > 100 µM (inactive); in the test on U-251 it was > 100 µM (inactive); in the test on CCRF-CEM, > 100 µM (inactive); in the test on M14, > 100 µM (inactive); in the test on SNB-75, 47.6 µM (inactive); in the test with MOLT-4, > 100 µM (inactive). Further, the GI50 in the test with NCI/ADR-RES, in the test on SK-MEL-5, with COLO 205, in the test with SW-620, in the test with UACC-257 and in the test with SK-OV-3 was > 100 µM (inactive) throughout. The GI50 in the test with EKVX was > 100 µM (inactive).
